Source: US20260125400A1, “TYK2 DEGRADERS AND USES THEREOF” (Kymera Therapeutics, Inc., priority 2023, published 2026)

Molecular target: T1, TYK2 (Homo sapiens, UniProt P29597)
T1 construct: Degradation of TYK2 in cells was quantitatively measured using Meso Scale Discovery (MSD) technology; endogenous in cells; host or cells: OCI-LY10
Assay: TYK2 MSD degradation in OCI-LY10 cells
Assay type: cell-based
Details: TYK2 degradation in OCI-LY10 cells, 4 to 24 hours incubation; for DC50: read-out: TYK2 MSD OCI-LY10 Rel-DC50
Procedure: Example 7. TYK2 MSD Degradation
Degradation of TYK2 in cells was quantitatively measured using Meso Scale Discovery (MSD) technology. OCI-LY10 cells were seeded in 96-well plates with a density of 0.4 million cells per well in 100 μl fresh media. Compounds were then added to the assay plates with a final top concentration of 1 to 10 μM in a 1:3 dilution series with total of 9 doses. The assay plates were then incubated for 4 to 24 hours at 37° C. under […]. The assay plates were then centrifuged for 5 minutes, and the cell pellets were treated with 100 μl/well RIPA lysis buffer (Boston Bioproducts, BP-115D) with protease and phosphatase inhibitors (Roche, 05892791001 and 04906837001). To prepare MSD assay plates (MSD, L15XA), the plates were coated with the capture antibody (Santa Cruz Biotechnology, SC-5271) in PBS, at 40 μl/well. The plates were then incubated overnight at 4° C., washed 3 times with 150 μl/well TBST buffer (Cell Signaling Technology, 9997S) and blocked with 150 μl/well blocking buffer (MSD, R93BA-4). Cell lysates were then added to MSD assay plates and the plates were incubated at room temperature for 1 hour. The plates were then washed 3 times with 150 μl/well TBST buffer and 25 μl/well primary detection antibody (Cell Signaling Technology, #9312). The assay plates were then incubated at room temperature for 1 hour, washed 3 times with 150 μl/well TBST buffer, and 25 μl/well secondary detection antibody, SULFO-TAG anti-rabbit antibody (MSD, R32AB-1) were added. The assay plates were then incubated at room temperature for 1 hour, washed 3 times with 150 μl/well TB ST buffer, and 150 μl/well MSD reading buffer (MSD, R92TC-2) were added. The plates were then analyzed by an MSD reader. The data was analyzed by GraphPad Prism and the dose dependent TYK2 degradation was fit using the four-parameter inhibitor vs. response nonlinear regression.
The letter codes for TYK2 DC50 include: A (<1 nM); B (i to <10 nM); C (10 to 100 nM); D (>100 nM); and E (not tested). The letter codes for TYK2 Dmax % include: A (>90%); B (90 to >75%); C (75 to 50%); D (<50%); and E (not tested).

T1 sequence (P29597 whole entry): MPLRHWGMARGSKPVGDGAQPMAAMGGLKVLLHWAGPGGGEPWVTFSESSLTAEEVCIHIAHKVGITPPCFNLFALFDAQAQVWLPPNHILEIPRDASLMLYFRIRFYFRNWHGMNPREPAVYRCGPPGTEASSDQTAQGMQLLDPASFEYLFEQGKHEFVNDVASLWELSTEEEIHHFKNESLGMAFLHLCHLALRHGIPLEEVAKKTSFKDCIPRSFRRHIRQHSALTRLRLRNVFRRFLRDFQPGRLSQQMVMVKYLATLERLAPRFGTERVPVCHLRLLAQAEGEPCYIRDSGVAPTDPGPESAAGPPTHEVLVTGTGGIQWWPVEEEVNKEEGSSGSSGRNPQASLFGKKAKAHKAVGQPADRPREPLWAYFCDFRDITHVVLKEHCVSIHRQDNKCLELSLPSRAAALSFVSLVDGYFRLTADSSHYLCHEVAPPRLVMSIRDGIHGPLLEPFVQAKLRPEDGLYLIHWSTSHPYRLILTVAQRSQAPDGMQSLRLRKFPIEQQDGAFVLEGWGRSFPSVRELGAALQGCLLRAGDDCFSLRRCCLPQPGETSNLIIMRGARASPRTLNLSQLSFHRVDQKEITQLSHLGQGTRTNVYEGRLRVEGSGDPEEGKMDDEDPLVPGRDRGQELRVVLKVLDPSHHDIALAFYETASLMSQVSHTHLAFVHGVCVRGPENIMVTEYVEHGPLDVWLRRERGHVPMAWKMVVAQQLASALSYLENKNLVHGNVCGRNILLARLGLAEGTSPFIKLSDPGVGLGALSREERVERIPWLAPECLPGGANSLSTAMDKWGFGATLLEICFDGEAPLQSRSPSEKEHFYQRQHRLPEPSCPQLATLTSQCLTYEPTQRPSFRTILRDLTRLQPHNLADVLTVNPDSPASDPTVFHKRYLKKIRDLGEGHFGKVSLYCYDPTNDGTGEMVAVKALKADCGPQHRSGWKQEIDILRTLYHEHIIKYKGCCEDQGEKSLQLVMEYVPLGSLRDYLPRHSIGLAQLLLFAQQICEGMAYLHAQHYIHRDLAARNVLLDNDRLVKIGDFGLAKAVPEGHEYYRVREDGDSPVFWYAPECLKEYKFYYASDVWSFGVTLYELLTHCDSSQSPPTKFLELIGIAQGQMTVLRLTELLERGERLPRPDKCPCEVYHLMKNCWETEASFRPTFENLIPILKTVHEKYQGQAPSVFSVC

Compound | TYK2 MSD OCI-LY10 Dmax % | DC50
CNc1cc(N2CCc3c(-c4ccc(CN5CCC(N6CCN(c7ccc8c(c7)n(C)c(=O)n8C7CCC(=O)NC7=O)CC6)C(F)(F)C5)cn4)cc(F)cc32)nn2c(C(=O)NC3CC3)cnc12 (stereo not drawn) [I-61] | B (B (90 to >75%)) | < 10 nM
CNc1cc(N2CCc3c(CN4CCC(N5CCC(N6CCN(c7ccc8c(c7)n(C)c(=O)n8C7CCC(=O)NC7=O)CC6)CC5)C(F)(F)C4)cccc32)nn2c(C(=O)NC3CC3)cnc12 (stereo not drawn) [I-62] | B (B (90 to >75%)) | < 1 nM
CNc1cc(N2CCc3c(-c4ccc(CN5CC6(CCN(C(=O)c7ccc(C)c(N8CCC(=O)NC8=O)c7)CC6)C5)cn4)cccc32)nn2c(C(=O)N[C@@H]3C[C@@H]3F)cnc12 [I-63] | A (A (>90%)) | < 1 nM
CNc1cc(N2CCc3c(-c4ccc(CN5CC6(CCN(C(=O)c7ccc(OC)c(N8CCC(=O)NC8=O)c7)CC6)C5)cn4)cccc32)nn2c(C(=O)N[C@@H]3C[C@@H]3F)cnc12 [I-64] | A (A (>90%)) | < 1 nM
CNc1cc(N2CCc3c(-c4ccc(CN5CCC6(CC5)CCN(c5cc(Cl)cc(NC7CCC(=O)NC7=O)c5)CC6)cn4)cccc32)nn2c(C(=O)NC3CC3)cnc12 (stereo not drawn) [I-65] | D (D (<50%)) | > 100 nM
CNc1cc(N2CCc3c(-c4ccc(CN5CCC6(CC5)CCN(c5ccc(Cl)c(NC7CCC(=O)NC7=O)c5)CC6)cn4)cccc32)nn2c(C(=O)NC3CC3)cnc12 (stereo not drawn) [I-66] | D (D (<50%)) | > 100 nM
CNc1cc(N2CCc3c(-c4ccc(CN5CC6(CCN(C(=O)c7ccc(Cl)c(N8CCC(=O)NC8=O)c7)CC6(F)F)C5)cn4)cccc32)nn2c(C(=O)N[C@@H]3C[C@@H]3F)cnc12 [I-67] | A (A (>90%)) | < 1 nM
CNc1cc(N2CCc3c(-c4cc(CN5CCN(c6ccc7c(c6)n(C)c(=O)n7C6CCC(=O)NC6=O)CC5)ccn4)cccc32)nn2c(C(=O)NC3CC3)cnc12 (stereo not drawn) [I-68] | B (B (90 to >75%)) | < 1 nM
CNc1cc(N2CCc3c(-c4ccc(CN5CCC(N6CCN(c7ccc8c(c7F)n(C)c(=O)n8C7CCC(=O)NC7=O)CC6)C(F)(F)C5)cn4)cccc32)nn2c(C(=O)NC3CC3)cnc12 (stereo not drawn) [I-69] | B (B (90 to >75%)) | < 10 nM
CNc1cc(N2CCc3c(-c4cc(CN5CCN(c6ccc7c(c6F)n(C)c(=O)n7C6CCC(=O)NC6=O)CC5)ccn4)cccc32)nn2c(C(=O)NC3CC3)cnc12 (stereo not drawn) [I-71] | B (B (90 to >75%)) | < 1 nM
CNc1cc(N2CCc3c(CN4CCC(N5CC(N6CCN(c7ccc8c(c7)n(C)c(=O)n8C7CCC(=O)NC7=O)CC6)C5)C(F)(F)C4)cccc32)nn2c(C(=O)N[C@@H]3C[C@@H]3F)cnc12 (stereo partly drawn) [I-72] | B (B (90 to >75%)) | < 1 nM
CNc1cc(N2CCc3c(-c4ccc(CN5CC6(CCN(C(=O)c7ccc(Cl)c(N8CCC(=O)NC8=O)c7)CC6)C5)cc4)cccc32)nn2c(C(=O)N[C@@H]3C[C@@H]3F)cnc12 [I-73] | C (C (75 to 50%)) | < 10 nM
CNc1cc(N2CCc3c(-c4ccc(CN5CCC6(CC5)CCN(c5ccc(N7CCC(=O)NC7=O)c(Cl)c5)CC6)cn4)cccc32)nn2c(C(=O)N[C@@H]3C[C@@H]3F)cnc12 [I-74] | D (D (<50%)) | < 10 nM
CNc1cc(N2CCc3c(-c4ccc(OC5CCC6(CC5)CCN(C(=O)c5ccc(Cl)c(N7CCC(=O)NC7=O)c5)CC6)cn4)cccc32)nn2c(C(=O)N[C@@H]3C[C@@H]3F)cnc12 [I-75] | C (C (75 to 50%)) | < 10 nM
CNc1cc(N2CCc3c(-c4ccc(OC5CC6(CCN(C(=O)c7ccc(Cl)c(N8CCC(=O)NC8=O)c7)CC6)C5)cn4)cccc32)nn2c(C(=O)N[C@@H]3C[C@@H]3F)cnc12 [I-76] | B (B (90 to >75%)) | < 1 nM
CNc1cc(N2CCc3c(-c4ccc(CN5CCC6(CC5)CCN(c5ccc(C7CCC(=O)NC7=O)c(Cl)c5)CC6)cn4)cccc32)nn2c(C(=O)N[C@@H]3C[C@@H]3F)cnc12 (stereo partly drawn) [I-77] | D (D (<50%)) | < 10 nM
CNc1cc(N2CCc3c(-c4cc(CN5CCN(C(=O)c6ccc(Cl)c(N7CCC(=O)NC7=O)c6)CC5)ccn4)cccc32)nn2c(C(=O)N[C@@H]3C[C@@H]3F)cnc12 [I-78] | D (D (<50%)) | < 10 nM

Compound | TYK2 MSD OCI-LY10 Dmax % | DC50
CNc1cc(N2CCc3c(-c4cc(CN5CC6(CCN(C(=O)c7ccc(Cl)c(N8CCC(=O)NC8=O)c7)CC6)C5)ccn4)cccc32)nn2c(C(=O)N[C@@H]3C[C@@H]3F)cnc12 [I-79] | D (D (<50%)) | < 10 nM
CNc1cc(N2CCc3c(-c4cc(CN5CCN(c6ccc7c(c6F)n(C)c(=O)n7C6CCC(=O)NC6=O)CC5)ccn4)cccc32)nn2c(C(N)=O)cnc12 (stereo not drawn) [I-81] | B (B (90 to >75%)) | < 1 nM
CNc1cc(N2CCc3c(-c4ccc(CN5CCC6(CC5)CCN(C(=O)c5ccc(Cl)c(N7CCC(=O)NC7=O)c5)C6)cn4)cccc32)nn2c(C(=O)N[C@H]3C[C@H]3F)cnc12 [I-82] | B (B (90 to >75%)) | < 1 nM
CNc1cc(N2CCc3c(-c4ccc(CN5CCC(N6CCN(c7ccc(C8CCC(=O)NC8=O)c(Cl)c7)CC6)C(F)(F)C5)cn4)cccc32)nn2c(C(=O)N[C@H]3C[C@H]3F)cnc12 (stereo partly drawn) [I-83] | D (D (<50%)) | < 10 nM
CNc1cc(N2CCc3c(CN4CCC(N5CCC(C6CCN(c7ccc8c(c7)n(C)c(=O)n8C7CCC(=O)NC7=O)CC6)CC5)C(F)(F)C4)cccc32)nn2c(C(=O)N[C@H]3C[C@H]3F)cnc12 (stereo partly drawn) [I-84] | C (C (75 to 50%)) | < 10 nM
CNc1cc(N2CCc3c(-c4ccc(CN5CCC6(CCN(C(=O)c7ccc(Cl)c(N8CCC(=O)NC8=O)c7)CC6)C5)cn4)cccc32)nn2c(C(=O)N[C@H]3C[C@H]3F)cnc12 [I-85] | B (B (90 to >75%)) | < 1 nM
CNc1cc(N2CCc3c(-c4ccc(CN5CCC(N6CCC(C#Cc7ccc8c(c7)n(C)c(=O)n8C7CCC(=O)NC7=O)CC6)C(F)(F)C5)cn4)cccc32)nn2c(C(=O)N[C@H]3C[C@H]3F)cnc12 (stereo partly drawn) [I-86] | C (C (75 to 50%)) | < 10 nM
CNc1cc(N2CCc3c(-c4ccc(CN5CC6(CCN(Cc7ccc(N8CCC(=O)NC8=O)c(Cl)c7)CC6(F)F)C5)cn4)cccc32)nn2c(C(=O)N[C@H]3C[C@H]3F)cnc12 [I-87] | D (D (<50%)) | < 10 nM
CNc1cc(N2CCc3c(-c4ccc(N5CCN(C(=O)c6ccc(Cl)c(N7CCC(=O)NC7=O)c6)CC5)cn4)cccc32)nn2c(C(=O)N[C@@H]3C[C@@H]3F)cnc12 [I-90] | D (D (<50%)) | < 10 nM
CNc1cc(N2CCc3c(-c4ccc(CN5CCC6(CC5)CCN(C(=O)c5ccc(Cl)c(C7CCC(=O)NC7=O)c5)CC6)cn4)cccc32)nn2c(C(=O)N[C@@H]3C[C@@H]3F)cnc12 (stereo partly drawn) [I-91] | B (B (90 to >75%)) | < 1 nM
CCNC(=O)c1nnc(Nc2ccc(CN3CC4(CCN(c5cccc6c5n(C)c(=O)n6C5CCC(=O)NC5=O)CC4(F)F)C3)cn2)cc1Nc1cccc(F)c1OC (stereo not drawn) [I-92] | C (C (75 to 50%)) | 10 to 100 nM
CNc1cc(N2CCc3c(N4CCC5(CCN(C(=O)c6ccc(Cl)c(N7CCC(=O)NC7=O)c6)CC5)CC4)cccc32)nn2c(C(=O)N[C@@H]3C[C@@H]3F)cnc12 [I-93] | D (D (<50%)) | < 10 nM
CNc1cc(N2CCc3c(N4CCN(C5CCN(C(=O)c6ccc(Cl)c(N7CCC(=O)NC7=O)c6)CC5)CC4)cccc32)nn2c(C(=O)N[C@@H]3C[C@@H]3F)cnc12 [I-94] | D (D (<50%)) | > 100 nM
CNc1cc(N2CCc3c(-c4ccc(CN5CCC6(CC5)CCN(Cc5ccc(Cl)c(N7CCC(=O)NC7=O)c5)CC6)cn4)cccc32)nn2c(C(=O)N[C@@H]3C[C@@H]3F)cnc12 [I-95] | D (D (<50%)) | > 100 nM
CNc1cc(N2CCc3c(-c4ccc(CN5CCC6(CCC(Oc7ccc(Cl)c(N8CCC(=O)NC8=O)c7)CC6)CC5)cn4)cccc32)nn2c(C(=O)N[C@@H]3C[C@@H]3F)cnc12 [I-96] | D (D (<50%)) | < 10 nM
CNc1cc(-c2cccc(N3CCN(Cc4ccc5c(c4)n(C)c(=O)n5C4CCC(=O)NC4=O)CC3)n2)nn2c(C(=O)NC3CC3)cnc12 (stereo not drawn) [I-198] | D (D (<50%)) | > 100 nM
